Assay results reported in patent publication US20060167229A1, “Biologically active peptide conjugates” (priority 2002, published 2006).
Marks after values point to notes of the source that are not given here. Ends that are not written are not given here.

Legend:
Assay type in all cases: in vivo, BALB/c mice
NK cell = NK cell cytotoxicity activity test (spleen cells of treated mice against YAC-1 target cells, MTT); conditions: for NK cell cytotoxic activity, X ± SD (%): healthy mice; for effect on the cytotoxic activity of NK cells (summary): statistically significant difference from saline in any of the dosage groups 0.5-500 μg/kg/day
Description: (§1) The above substances were all dissolved in 0.5 ml saline and injected intraperitoneal (i.p.) for 15 continuous days, once per day.
(§2) Ten mice per group. The day after the last test substance administration, the mice were sacrificed by cervical dislocation. The spleen was isolated aseptically and manually dispersed in cold D-Hank's solution using an injection needle. The dispersed cell suspension was further sieved through a 100 gauge 150 μm diameter stainless steel sieve. After centrifugation at 200 g for 10 minutes, the supernatant was discarded. The cell pellet was re-suspended in 10 volume of Tris-NH4Cl buffer and then kept standing still for 10 minutes at room temperature. The suspended cells were collected by centrifugation at 150 g for 10 minutes. The cells were washed 2-4 times with cold D-Hank's solution by re-suspending and collecting by centrifugation with condition as described above. The washed cells were then diluted to the desired cell densities by RPMI-1640 culture medium, containing 10% fetal bovine serum.
Mice spleen cells were prepared to 4×10^6/ml as described in section 1.1 above. Target cells YAC-1 were brought to log phase and adjusted to 1×10^5/ml. Using a 96 wells cell culture plate, […] were added to the control well containing only the spleen cells; […] and 100 μl culture medium were added to the control well containing only target cells; 100 μl mouse spleen cells and 100 μl target cells were added to the NK activity assay well. Three parallel sets of the above were prepared per mouse.
Samples were centrifuged at 150 g for 10 minutes to collect the cells. The supernatant was discarded and 50 μl/well MTT of 1 mg/ml was added. The reaction-mixture was then shaken for 2 minutes, and incubated at 37° C., 5% CO2 for 4 hours. The supernatant was discarded after centrifugation at 150 g for 10 minutes. […] 40 mM HCl-2-propanol was added and shaken for 3 minutes. An ELISA reader was used to obtain OD570 nm of each well referenced at 630 nm.

anti-SRBC antibody = assay: Sheep Red Blood Cell (SRBC) hemolysis test, antibody formation; conditions: for anti-SRBC antibody formation, X ± SD (Unit): healthy mice, SRBC day 12 (IFN-γ, IL-2 3×10^5 IU/kg/day), saline 32 ± 7; for effect on the synthesis of anti-SRBC antibody upon the antigenic challenge (summary): statistically significant difference from saline in any of the dosage groups 0.5-500 μg/kg/day
Description: Sheep red blood cells (SRBC) were prepared by collecting blood from cervical vein and put into a sterile flask with glass beads. The flask was shaken for 3 minutes and the blood then mixed with Alsever solution (glucose 2.05 g, NaCl 0.4 g, […] 0.8 g, adjust to 100 ml with distilled water) and stored at 4° C. Immediately before use, samples were centrifuged at 130 g, 5 minutes to collect the SRBC. The cells were washed two times by re-suspension and centrifugation in normal saline. Then the cell pellet was collected by centrifugation at 180 g for 10 minutes and re-suspended in saline to make the final working SRBC suspension, 2% (v/v).
Complement was prepared by adding 10 volumes of fresh Cavy serum into one volume centrifuge packed SRBC, and then gently shaking for 30 minutes at 4° C. The SRBC was removed by centrifugation at 200 g for 10 minutes. 10 volumes of normal saline were added to obtain the working complement solution.
The test substances were administered as described in section 1.1, plus intraperitoneal injection 0.2 ml SRBC per mouse on day 12. On the day after the last test substance administration (day 16), blood was collected from the eye canthus and left at room temperature for one hour for serum exudation. After centrifugation at 200 g for 10 minutes, the serum was diluted by 500 times with normal saline.
To 1 ml diluted mouse serum of each mouse, 0.5 ml SRBC suspension was added. Ice cold. Then 1 ml working complement solution was added and incubated at 37° C. water bath for 10 minutes. Reactions were terminated by ice cold. Samples were then centrifuged at 200 g for 10 minutes to obtain the supernatant.
To 1 ml of this supernatant, 3 ml Drabkin solution was added and left at room temperature for 10 minutes. OD540 nm was obtained.
Reference OD540 nm was obtained by mixing 0.25 ml SRBC suspension with Drabkin solution to 4 ml and placed at room temperature for 10 minutes before OD540 nm was taken.
Sample serum index=(OD540 nm of test sample÷reference OD540 nm)×500

thymus gland = assay: Immunity organ weight test, thymus gland index; conditions: for weight of thymus gland (thymus gland index), X ± SD (%): healthy mice, saline 0.12 ± 0.02; for effect on the weight of the thymus gland (summary): statistically significant difference from saline in any of the dosage groups 0.5-500 μg/kg/day
Description: (§3) One day after the last test substance administration (day 16), the liver, spleen, and thymus gland were separated and blotted dry with filter paper and weighed. The phagocytosis index α was calculated as below: α=(^3√{square root over ( )}K)(W÷WLS)
Thymus gland index (%)=(thymus weight/body weight)×100%

spleen = assay: Immunity organ weight test, spleen index; conditions: for weight of spleen (spleen index), X ± SD (%): healthy mice, saline 0.53 ± 0.05; for effect on the weight of the spleen (summary): statistically significant difference from saline in any of the dosage groups 0.5-500 μg/kg/day
Description: as §3
Spleen index (%)=(spleen weight/body weight)×100%

T lymphocyte = T lymphocyte transformation test (ConA-stimulated spleen cells of treated mice, MTT); conditions: for X ± SD (stimulation index): healthy mice, saline 1.3 ± 0.1; for effect on T lymphocyte transformation (summary): statistically significant difference from saline in any of the dosage groups 0.5-500 μg/kg/day
Description: as §1, §2
Spleen cells of density 1×10^6/ml were placed onto a 96 wells cell culture plate, 100 μL/well, three parallel wells each of the assay sample and control sample per mouse. To the assay wells, 100 μl/well ConA of 100 μg/ml in RPMI-1640 was added, and […] plain RPMI-1640 was used for the controls. The cells were incubated for 66 hrs at 37° C., 5% CO2. The cells were then pelleted by centrifugation at 150 g for 10 minutes.
50 μl/well MTT of 1 mg/ml in RPMI-1640 was added to the cell pellet and the cells re-suspended by shaking for 2 minutes. The incubation was continued for 4 hours. The supernatant was discarded after centrifugation at 150 g for 10 minutes. 120 μl 40 mM HCl-2-propanol was added to the cell pellet and shaken for 3 minutes. […]
Each mouse formed three assay wells and three control wells. The Stimulation Index (SI) of each mouse was obtained by first deriving the average OD of the three parallel wells, then dividing the value of the assay wells by the control wells.

mononuclear phagocyte = assay: Carbon particle clearance test, phagocytosis function; parameters: key to X ± SD (phagocytotic index): α = cube root of K × (body weight ÷ liver+spleen weight)
Description: On the next day after the last test substance administration (day 16), the mice were injected with […] body weight India ink (5 times dilution with normal saline) from the tail vein.
One minute and five minutes after Indian ink injection, 20 μl blood was obtained from the eye canthus with a heparinized tubing. The blood was mixed with 2 ml 0.1% w/v Na2CO3 and then OD680 nm obtained. The outline clear index K was calculated by the following formula: K=(lgA1−lgA2)÷(t2−t1)
as §3

[1] = peptide 500 μg/kg/day i.p. 15 days (IFN-γ, IL-2 3×10^5 IU/kg/day), saline 63 ± 9
[2] = peptide 0.5 μg/kg/day i.p. 15 days
[3] = peptide 5 μg/kg/day i.p. 15 days
[4] = peptide 50 μg/kg/day i.p. 15 days
[5] = peptide 500 μg/kg/day i.p. 15 days
[6] = peptide 5 μg/kg/day i.p. 15 days (IFN-γ, IL-2 3×10^5 IU/kg/day)
[7] = peptide 50 μg/kg/day i.p. 15 days (IFN-γ, IL-2 3×10^5 IU/kg/day)
[8] = peptide 500 μg/kg/day i.p. 15 days (IFN-γ, IL-2 3×10^5 IU/kg/day)
[9] = peptide 0.5 μg/kg/day i.p. 15 days (IFN-γ, IL-2 3×10^5 IU/kg/day)

Row | Substance | NK cell cytotoxic activity, X ± SD (%) (NK cell; [1]) | effect on the cytotoxic activity of NK cells (summary) (NK cell) | anti-SRBC antibody formation, X ± SD (Unit) (anti-SRBC antibody; [2]) | anti-SRBC antibody formation, X ± SD (Unit) (anti-SRBC antibody; [3]) | anti-SRBC antibody formation, X ± SD (Unit) (anti-SRBC antibody; [4]) | anti-SRBC antibody formation, X ± SD (Unit) (anti-SRBC antibody; [5]) | effect on the synthesis of anti-SRBC antibody upon the antigenic challenge (summary) (anti-SRBC antibody) | weight of thymus gland (thymus gland index), X ± SD (%) (thymus gland; [6]) | weight of thymus gland (thymus gland index), X ± SD (%) (thymus gland; [7]) | effect on the weight of the thymus gland (summary) (thymus gland) | weight of spleen (spleen index), X ± SD (%) (spleen; [5]) | effect on the weight of the spleen (summary) (spleen) | X ± SD (stimulation index) (T lymphocyte; [8]) | effect on T lymphocyte transformation (summary) (T lymphocyte) | weight of thymus gland (thymus gland index), X ± SD (%) (thymus gland; [8]) | weight of thymus gland (thymus gland index), X ± SD (%) (thymus gland; [9]) | also measured
1 | Ala Ala Phe [CMS023] | 79 ± 12 | increase | 108 ± 21*^@^ Unit | 166 ± 27*^@^ Unit | 84 ± 11*^@^ Unit | 110 ± 45*^@^ Unit | enhance | 0.23 ± 0.06 % | 0.20 ± 0.02*^@^ % | increase | 0.36 ± 0.06 | decrease | – | – | – | – | –
2 | Phe Asn Glu Gln (FNEQ; printed: Phe Asn Glu Gln) [CMS029] | 87 ± 4 | increase | 18 ± 7 Unit | 147 ± 23*^@^ Unit | 143 ± 13*^@^ Unit | 115 ± 22*^@^ Unit | – | 0.21 ± 0.03 % | 0.18 ± 0.05 % | increase | – | decrease | 1.7 ± 0.3 | enhance | 0.22 ± 0.04*^@^ % | – | weight of spleen (spleen index), X ± SD (%) (spleen; Table 28, peptide 5 μg/kg/day (so in the source) i.p. 15 days (IFN-γ, IL-2 3×10^5 IU/kg/day)): 0.42 ± 0.04 %
3 | Phe Gln Ser Phe (FQSF; printed: Phe Gln Ser Phe) [CMS033] | 89 ± 8 | increase | 78 ± 12*^@ Unit | 128 ± 39*^@^ Unit | 112 ± 15*^@^ Unit | 143 ± 27*^@^ Unit | enhance | 0.20 ± 0.02 % | 0.18 ± 0.03 % | increase | – | – | – | – | 0.25 ± 0.04*^@^ % | – | –
4 | Phe Glu Gln Asn Met (FEQNM; printed: Phe Glu Gln Asn Met) [CMS027] | 88 ± 8 | increase | 99 ± 14*^@^ Unit | 117 ± 45*^@^ Unit | 93 ± 11*^@^ Unit | – | enhance | – | 0.21 ± 0.03*^@^ % | increase | 0.37 ± 0.03 | decrease | – | – | 0.20 ± 0.03*^ % | – | X ± SD (phagocytotic index) (mononuclear phagocyte; healthy mice, peptide 0.5 μg/kg/day i.p. 15 days (IFN-γ, IL-2 3×10^5 IU/kg/day), saline 5.1 ± 0.6): 6.4 ± 0.6; effect on the phagocytotic activity of mononuclear phagocyte (summary) (mononuclear phagocyte; statistically significant difference from saline in any of the dosage groups 0.5-500 μg/kg/day): enhance
5 | TTYNSIM [CMS026] | 89 ± 7 | increase | 19 ± 6 Unit | 191 ± 17*^@^ Unit | 98 ± 9*^@^ Unit | – | – | 0.31 ± 0.05*^@^ % | 0.27 ± 0.02*^@^ % | increase | – | – | – | – | 0.20 ± 0.03*^ % | 0.21 ± 0.05 % | NK cell cytotoxic activity, X ± SD (%) (NK cell; peptide 50 μg/kg/day i.p. 15 days (IFN-γ, IL-2 3×10^5 IU/kg/day), saline 56 ± 8): 76 ± 9 %
6 | VVYPWTQRF [CMS002] | – | increase | 4 ± 1 Unit | – | – | 87 ± 18*^@ Unit | – | 0.24 ± 0.05*^ % | 0.21 ± 0.02*^@^ % | increase | – | – | 1.8 ± 0.3 | enhance | – | 0.26 ± 0.06*^@^ % | X ± SD (stimulation index) (T lymphocyte; [7]): 2.6 ± 0.3*^@^; NK cell cytotoxic activity, X ± SD (%) (NK cell; peptide 0.5 μg/kg/day i.p. 15 days (IFN-γ, IL-2 3×10^5 IU/kg/day), saline 58 ± 7): 76 ± 9 %
